# Experimental data reported in patent US11311593B2, “Root extracts from plants of the Morus genus and uses of same” (PLANT ADVANCED TECHNOLOGIES PAT, priority 2017, dated 2022).
# Experiments:
# [1] = tested on: collagenase obtained from Clostridium Histolyticum; experiment: Target Binding affinity test for collagenase; settings: ligands in non-stimulated M. alba root extract; moracenin B = reference ligand
# Experimental: A root extract of Morus alba was prepared in accordance with the protocol described in Example 2.1. The Target Binding® method used was that of Example 2.3 which is described in patent application FR 1 670 545. The experimental protocol was as follows:
# The target, a 6.25 mg/mL solution of collagenase obtained from Clostridium histolyticum, was prepared by dissolving lyophilized enzyme powder in 50 mM saline phosphate buffer with a pH of 7.5. The sample to be analyzed corresponded to the supernatant of the root extract obtained in accordance with Example 2.1. It could be centrifuged once again before use, at 21000 g for 15 min, in order to remove any traces of solid particles. A reference sample was also prepared by diluting the sample to be analyzed 10-fold in a solution of water and a quarter of the volume of acetonitrile.
# 1. Preconditioning step—Wells with a filtering membrane were preconditioned with a volume of 500 μL of a saline phosphate buffer which was passed through the membrane by centrifuging at 14000 g for 60 seconds.
# 2. Binding step—A volume of 92.5 μL of the solution obtained from the pretreatment step was mixed with 7.5 μL of the sample to be analyzed for 10 min in a plastic Eppendorf tube.
# 3. Washing step—The mixture of the enzyme and the sample to be analyzed was deposited in a well that had been preconditioned in the preconditioning step, then centrifuged at 14000 g until most of the solvent had been eliminated. The enzyme-ligand complexes remained on the surface of the filter membrane, then were re-suspended in a volume of 100 μL of the same saline phosphate buffer solution and centrifuged at 14000 g until the solvent had been eliminated. This procedure was repeated three times and eliminated all of the compounds that were not bound to the enzyme. 4. Separation step—The enzyme-ligand complexes retained in the filter were re-suspended in a volume of 10 μL of ultra-pure water then mixed with a volume of 30 μL of acetonitrile in order to denature and precipitate the enzyme and, at the same time, to liberate the ligands. The mixture was centrifuged at 21000 g for 10 min in order to separate the precipitate from the supernatant. 5. Analysis step—Said supernatant was analyzed by liquid phase chromatography coupled to a mass spectrometer. The reference sample was also analyzed in the same manner, using the same analytical conditions.
# The UPLC-MS analysis was carried out in accordance with the protocol described in Example 1.
# [2] = target: T1, hyaluronidase originating from bull testicles (type IV-S) (Bos taurus, UniProt Q2YDK3); experiment: Anti-hyaluronidase inhibiting activity, hyaluronic acid as substrate, precipitation with acidic BSA; format: biochemical
# T1 construct: hyaluronidase originating from bull testicles (type IV-S); from tissue; host or cells: bull testicles
# T1 sequence (Q2YDK3 36-553): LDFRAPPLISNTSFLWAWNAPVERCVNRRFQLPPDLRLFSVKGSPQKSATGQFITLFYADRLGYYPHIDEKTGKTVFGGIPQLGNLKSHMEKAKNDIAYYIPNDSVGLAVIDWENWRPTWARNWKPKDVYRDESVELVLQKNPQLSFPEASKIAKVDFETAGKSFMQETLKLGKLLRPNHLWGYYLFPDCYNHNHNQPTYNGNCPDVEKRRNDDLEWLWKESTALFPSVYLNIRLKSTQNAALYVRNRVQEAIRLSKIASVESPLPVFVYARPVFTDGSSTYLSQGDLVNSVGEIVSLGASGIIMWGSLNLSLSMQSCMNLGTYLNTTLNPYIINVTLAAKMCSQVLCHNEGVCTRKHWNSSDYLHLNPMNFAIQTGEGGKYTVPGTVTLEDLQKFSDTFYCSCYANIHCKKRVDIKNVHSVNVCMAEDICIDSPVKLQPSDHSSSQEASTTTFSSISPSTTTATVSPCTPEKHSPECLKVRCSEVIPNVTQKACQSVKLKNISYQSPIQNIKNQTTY
# Experimental: A root extract of Morus Alba was prepared in accordance with the protocol described in Example 5. Hyaluronidase catalyzes the hydrolysis of hyaluronic acids into monosaccharides, disaccharides and short oligosaccharides. The measurement of the anti-hyaluronidase inhibiting activity was carried out using hyaluronic acid (HA) as a substrate in order to follow its reduction during the enzymatic reaction, the slope of the reduction of the concentration of HA during the reaction being proportional to the enzymatic activity.
# The concentration of HA was measured in accordance with the following principle: in the presence of an acidic solution of bovine serum albumin, HA precipitates. Thus, in the case of the presence of HA, a precipitate is formed and in the case of complete hydrolysis of the HA, no precipitate is observed. Thus, the quantity of precipitation is proportion& to the HA content. […]
# In order to follow the enzymatic degradation of the HA, a volume of 50 μl of RM was removed every 15 minutes, mixed with a volume of 250 μL of the solution of acidic BSA (acidic solution of bovine serum albumin: 24 mM sodium acetate, 79 mM acetic add and 0.1% (w/v) bovine serum albumin, pH 3.75) then incubated for 10 min at ambient temperature. The quantity of precipitate formed was then measured using a plate reader (diffusion of light at 600 nm). […]
SMILES,Relative affinity (RA) for collagenase [1],inhibition at 10 µM [2] [%]
"CC(C)=CCc1c(O)ccc(C(=O)[C@@H]2CC(C)=C[C@H](c3c(O)cc(O)c4c(=O)c(CC=C(C)C)c(-c5ccc(O)cc5O)oc34)[C@H]2c2ccc(O)cc2O)c1O [Moracenin A, moracenin A]",1.1,55.1
"CC(C)=CCc1c(O)ccc(C(=O)C2C(c3ccc(O)cc3O)CC3(C)CC2c2c(O)cc(-c4cc5ccc(O)cc5o4)cc2O3)c1O (stereo not shown) [Wittiorumin F, wittiorumin F]",1.1,
"CC(C)=CCc1c(-c2ccc(O)cc2O)oc2c([C@H]3C=C(C)C[C@H](C(=O)c4ccc(O)cc4O)[C@@H]3c3ccc(O)cc3O)c(O)cc(O)c2c1=O [Moracenin B, moracenin B]",1.0,
